For 20 compounds, IC50 and EC50 results are on record in US20220289728A1, “MODULATORS OF TREX1” (Constellation Pharmaceuticals, Inc., priority 2019, published 2022).

Each structure is given as a SMILES string.

The target in assay [1] is T1, human TREX2 (residues M44-A279) (Homo sapiens, UniProt Q9BQ50).
T1 construct: human TREX2 (residues M44-A279, expressed in E. coli); His-TEV (His tag with TEV site) (N); made in house; host or cells: E. coli
T1 sequence (Q9BQ50 44-279 isoform Q9BQ50-1): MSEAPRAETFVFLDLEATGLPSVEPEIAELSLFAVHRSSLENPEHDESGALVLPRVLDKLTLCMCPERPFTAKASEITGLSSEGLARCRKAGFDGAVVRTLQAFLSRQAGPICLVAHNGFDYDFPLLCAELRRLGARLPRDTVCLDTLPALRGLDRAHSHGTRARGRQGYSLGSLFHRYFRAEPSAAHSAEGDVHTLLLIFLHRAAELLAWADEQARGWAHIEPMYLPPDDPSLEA
Nature of the assay: TREX2 Biochemical Assay (fluorescence, dsDNA substrate degradation). The note with it: 2.5 nM TREX2, 60 nM dsDNA substrate, 25 minutes at room temperature. A digest of the protocol:
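Final conditions: 2.5 nM His-Tev-tagged TREX2 (E. coli-expressed), 60 nM fluorophore/quencher-labelled dsDNA, 50 mM Tris pH 7.4, 150 mM NaCl, 100 mM MgCl2, 1% DMSO; 10-point compound dose-response. Incubated 25 min at room temperature, then EDTA-quenched; fluorescence read at ex 570/em 615 nm. IC50 from four-parameter fit against pre-quenched and no-inhibitor controls.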

The target of assay [2] is T2, full length human TREX1 (Homo sapiens, UniProt Q9NSU2).
T2 construct: N-terminally His-Tev tagged full length human TREX1; His-TEV (His tag with TEV site) (N); made in house; host or cells: E. coli
T2 sequence (Q9NSU2 1-314): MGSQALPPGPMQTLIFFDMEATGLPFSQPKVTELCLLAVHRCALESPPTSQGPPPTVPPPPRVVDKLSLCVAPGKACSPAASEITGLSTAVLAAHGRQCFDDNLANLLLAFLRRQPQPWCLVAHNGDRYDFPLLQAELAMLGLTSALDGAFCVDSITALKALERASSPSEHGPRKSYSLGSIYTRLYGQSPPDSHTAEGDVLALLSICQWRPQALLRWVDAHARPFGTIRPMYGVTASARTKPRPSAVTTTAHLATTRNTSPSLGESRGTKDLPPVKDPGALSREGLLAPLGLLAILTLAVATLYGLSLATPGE
Description: TREX1 Biochemical Assay (fluorescence, dsDNA substrate degradation). The note with it: 150 pM TREX1, 60 nM dsDNA substrate, 25 minutes at room temperature. A digest of the protocol:
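N-terminally His-Tev-tagged TREX1 was expressed in E. coli; 150 pM enzyme was run with 60 nM TEX615/quencher-labelled dsDNA at pH 7.4 in 1.0% DMSO for 25 min at room temperature, then quenched with EDTA. Fluorescence at 615 nm (570 nm excitation) was normalised to pre-quenched and no-inhibitor controls, and IC50 came from four-parameter fits.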

Assay [3] deals with HCT116 dual cells. Nature of the assay: HCT116 Cell Assay (Lucia luciferase reporter of Type I interferon induction). The class given is cell-based, human. The note with it: Homo sapiens, HCT-116, 4 h pre-treatment, pBR322/BstNI DNA transfection, Lucia luciferase at 48 h; relative to 10 uM compound 39. The procedure, abridged:
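Cells were pretreated with compound for 4 h (≤0.1% DMSO), then transfected with pBR322/BstNI DNA (1.25 ug/mL; 100 ng/well) using Lipofectamine LTX. Secreted Lucia luciferase in the medium was read after 48 h at 37 °C. EC50 came from four-parameter fits normalised to no-inhibitor and 10 uM reference-inhibitor controls.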
(A reporter such as luciferase makes a cellular process visible.)

As a reminder, the IC50 is the midpoint of a concentration-inhibition curve. Read a low IC50 as inhibition by little substance. For orientation: EC50 means the midpoint of the concentration-response curve. As for `CCN(Cc1ccccc1)c1nc(C(=O)Nc2cnoc2)c(O)c(=O)n1C` [Example 13, 2-(benzyl(ethyl)amino)-5-hydroxy-N-(isoxazol-4-yl)-1-methyl-6-oxo-1,6-dihydropyrimidine-4-carboxamide], the 50% inhibitory concentration (IC50) in assay [1] is 1 to 10 µM; in assay [2] it was below 0.1 µM. Moreover, in assay [3], the EC50 lay within 10 to 100 µM.

For the compound `CN(Cc1ccc2ccccc2c1)c1nc(C(=O)Nc2cnoc2)c(O)c(=O)n1C` [Example 14], the figures for the IC50 in assay [1] and in assay [2] were 1 to 10 µM and below 0.1 µM, respectively. In addition, in assay [3], the EC50 was 10 to 100 µM.

For the compound `CN(Cc1cccc2ccccc12)c1nc(C(=O)Nc2cnoc2)c(O)c(=O)n1C` [Example 15], the 50% inhibitory concentration (IC50) in assay [1] is 1 to 10 µM; in assay [2] it was below 0.1 µM. In addition, the half-maximal effective concentration (EC50) in assay [3] lay in the range of 1 to 10 µM.

`Cn1c(N(CCOc2ccccc2)Cc2ccccc2)nc(C(=O)Nc2cnoc2)c(O)c1=O` [Example 16]: the values for the IC50 in assay [1] and in assay [2] were below 1 µM and below 0.1 µM, respectively. Also, the concentration for a half-maximal effect (EC50) in assay [3] lay within 10 to 100 µM.

Turning to `CN(Cc1ccccc1-c1ccccc1)c1nc(C(=O)Nc2cnoc2)c(O)c(=O)n1C` [Example 18], the figures for the IC50 in assay [1] and in assay [2] were 1 to 10 µM and below 0.1 µM, respectively. Also, the EC50 in assay [3] lay within 10 to 100 µM.

On to `CN(Cc1cccc(-c2cnn(C)c2)c1)c1nc(C(=O)Nc2cnoc2)c(O)c(=O)n1C` [Example 19], for which the figures for the IC50 in assay [1] and in assay [2] were 1 to 10 µM and below 0.1 µM, respectively. For the same compound, the concentration giving a half-maximal response (EC50) in assay [3] is 10 to 100 µM.

Regarding `CN(Cc1ccccn1)c1nc(C(=O)Nc2cnoc2)c(O)c(=O)n1C` [Example 22], the IC50 in assay [1] was in the range of 1 to 10 µM; in assay [2] it was 0.1 to 1 µM. In addition, the EC50 in assay [3] fell in the range of 10 to 100 µM.

For `CN(Cc1ccc(-c2cnn(C)c2)cc1)c1nc(C(=O)Nc2cnoc2)c(O)c(=O)n1C` [Example 25], the values for the IC50 in assay [1] and in assay [2] were 1 to 10 µM and below 0.1 µM, respectively. For the same compound, the EC50 in assay [3] is 10 to 100 µM.

In the case of `C[C@H](c1ccccc1)N(C)c1nc(C(=O)Nc2cnoc2)c(O)c(=O)n1C` [Example 27], the figures for the IC50 in assay [1] and in assay [2] were below 1 µM and below 0.1 µM, respectively. Moreover, the EC50 in assay [3] fell in the range of 1 to 10 µM.

Turning to `C[C@@H](c1ccccc1)N(C)c1nc(C(=O)Nc2cnoc2)c(O)c(=O)n1C` [Example 28], the IC50 was 1 to 10 µM in assay [1] and below 0.1 µM in assay [2]. Besides, the EC50 in assay [3] lay in the range of 1 to 10 µM.

For `CC(C)N(Cc1ccccc1)c1nc(C(=O)Nc2cnoc2)c(O)c(=O)n1C` [Example 29], the IC50 in assay [1] was 1 to 10 µM; in assay [2], below 0.1 µM. Besides, in assay [3], the concentration giving a half-maximal response (EC50) lay within 10 to 100 µM.

With `CN(c1nc(C(=O)Nc2cnoc2)c(O)c(=O)n1C)C(c1ccccc1)c1ccccc1` [Example 30], the figures for the IC50 in assay [1] and in assay [2] were below 1 µM and below 0.1 µM, respectively. Also, the EC50 in assay [3] was below 1 µM.

With `CN(Cc1cccc2c1cnn2C)c1nc(C(=O)Nc2cnoc2)c(O)c(=O)n1C` [Example 31], the IC50 is 1 to 10 µM in assay [1] and below 0.1 µM in assay [2]. The EC50 in assay [3] lay within 1 to 10 µM.

For `CN(Cc1cccnc1)c1nc(C(=O)Nc2cnoc2)c(O)c(=O)n1C` [Example 32], the results for the IC50 in assay [1] and in assay [2] were 1 to 10 µM and below 0.1 µM, respectively. Further, in assay [3], the EC50 was in the range of 10 to 100 µM.

Consider `Cc1c(-c2ccncc2CN(C)c2nc(C(=O)Nc3cnoc3)c(O)c(=O)n2C)cnn1C` [Example 35], for which the IC50 in assay [1] is 1 to 10 µM; in assay [2], below 0.1 µM. Moreover, the half-maximal effective concentration (EC50) in assay [3] lay in the range of 10 to 100 µM.

Consider `CN(c1nc(C(=O)Nc2cnoc2)c(O)c(=O)n1C)C(C)(c1ccccc1)c1ccccc1` [Example 52], for which the IC50 is 1 to 10 µM in assay [1] and below 0.1 µM in assay [2]. In assay [3], the EC50 was in the range of 10 to 100 µM.

Take `CN(Cc1ccccc1Cl)c1nc(C(=O)Nc2cnoc2)c(O)c(=O)n1C` [Example 74]: the IC50 in assay [1] is 1 to 10 µM; in assay [2], below 0.1 µM. Besides, the EC50 in assay [3] was 1 to 10 µM.

In the case of `CN(Cc1ccccc1-c1cnn(C)c1)c1nc(C(=O)Nc2cnoc2)c(O)c(=O)n1C` [Example 78], the half-inhibitory concentration (IC50) was 1 to 10 µM in assay [1] and below 0.1 µM in assay [2]. For the same compound, the EC50 in assay [3] is 10 to 100 µM.

With `Cc1nn(C)cc1-c1cncc(CN(C)c2nc(C(=O)Nc3cnoc3)c(O)c(=O)n2C)n1` [Example 79], the figures for the IC50 in assay [1] and in assay [2] were 1 to 10 µM and below 0.1 µM, respectively. Also, in assay [3], the EC50 lay in the range of 10 to 100 µM.

Regarding `Cc1nn(C)cc1-c1cnc(CN(C)c2nc(C(=O)Nc3cnoc3)c(O)c(=O)n2C)cn1` [Example 80], the IC50 in assay [1] was 1 to 10 µM; in assay [2] it was below 0.1 µM. For the same compound, in assay [3], the EC50 is 10 to 100 µM.
